Assay results published in patent publication US20180369244A1, “BTK Inhibitors to Treat Solid Tumors Through Modulation of the Tumor Microenvironment” (Acerta Pharma B.V., priority 2014, published 2018).

Columns and labels:
[1] = tested on: GPVI platelet aggregation; test: GPVI platelet aggregation (convulxin-induced); format: cell-based, human
Protocol: GPVI platelet aggregation was measured for Formula (II) and Formula (X) (ibrutinib). Blood was obtained from untreated humans, and platelets were purified from […] by centrifugation. Cells were resuspended to a final concentration of […] in buffer containing 145 mmol/L NaCl, 10 mmol/L HEPES, 0.5 mmol/L Na2HPO4, 5 mmol/L KCl, 2 mmol/L MgCl2, 1 mmol/L CaCl2, and 0.1% glucose, at pH 7.4. Stock solutions of Convulxin (CVX) GPVI were prepared on the day of experimentation and added to platelet suspensions 5 minutes (37° C., 1200 rpm) before the induction of aggregation. Aggregation was assessed with a Chronolog Lumi-Aggregometer (model 540 VS; Chronolog, Havertown, Pa.) and permitted to proceed for 6 minutes after the addition of agonist. The results are reported as maximum percent change in light transmittance from baseline with platelet buffer used as a reference.
In FIG. 23, the results of CVX-induced (250 ng/mL) human platelet aggregation results before and 15 minutes after administration of the BTK inhibitors to 6 healthy individuals are shown.

[2] = tested on: human platelet-mediated thrombosis; settings: mouse, in vivo
Protocol: Injury to the vessel wall of arterioles ([…] diameter) was performed using a pulsed nitrogen dye laser (440 nm, Photonic Instruments) applied through a 20× water-immersion Olympus objective (LUMPlanF1, 0.5 numerical aperature (NA)) of a Zeiss Axiotech vario microscope. […] The extent of thrombus formation was assessed for 2 minutes after injury and the area (μm^2) of coverage determined (Image IQ, Andor Technology).
The BTK inhibitor-treated human platelets were fluorescently labeled and infused continuously through a catheter inserted into the femoral artery.

[3] = tested on: KPC derived mouse pancreatic cancer cells; test: KPC derived pancreatic cancer cells injected into pancreas, Formula (II) and/or gemcitabine; format: in vivo; settings: Formula (II) 15 mg/kg/BID oral; gemcitabine 15 mg/kg IV every 4 days for 3 injections
Protocol: In this study, KPC derived mouse pancreatic cancer cells (KrasGl2D;Trp53R^172H;Pdx1-Cre) were injected into the pancreases.
Single cell suspensions from tumor samples. Mouse tumor tissue was collected and stored in PBS/0.1% soybean trypsin inhibitor prior to enzymatic dissociation. Samples were finely minced with a scissors and mouse tissue was transferred into DMEM containing 1.0 mg/ml collagenase IV (Gibco), 0.1% soybean trypsin inhibitor, and 50 U/ml DNase (Roche) and incubated at 37 C for 30 min. with constant stirring while human tissue was digested in 2.0 mg/ml collagenase IV, 1.0 mg/ml hyluronidase, 0.1% soybean trypsin inhibitor, and 50 U/ml DNase for 45 minutes. Suspensions were filtered through a 100 micron filter and washed with FACS buffer (PBS/0.5% BSA/2.0 mM EDTA) prior to staining. Two million total cells were stained with antibodies as indicated. Intracellular detection of FoxP3 was achieved following permeabilization with BD Perm Buffer III (BD Biosciences) and eBioscience Fix/Perm respectively. Following surface staining, samples were acquired on a BD Fortessa and analyzed using FlowJo (Treestar) software.

NK cells [4] = test: Antibody-dependent NK cell degranulation (CD107a flow cytometry); format: cell-based, human
Text: Cell culture conditions were as follows. […] The HER18 cells were maintained in DEM supplemented with fetal bovine serum, penicillin-streptomycin and. Prior to assay, HER18 cells were harvested using trypsin-EDTA, washed with phosphate-buffered saline (PBS) containing 5% serum and viable cells were counted. […] Cell preparations were washed and then subject to positive selection of CD5+CD19^+ CLL cells using magnetic beads (MACS, Miltenyi Biotech). Cell preparations were used fresh after selection. […] Removal of non NK cells was performed using negative selection by MACS separation. Freshly isolated NK cells were washed three times, enumerated, and then used immediately for ADCC assays.
Lytic granule release was determined as follows. […] Degranulation was evaluated via by flow cytometery by externalization of CD107a, a protein normally present on the inner leaflet of lytic granules, and gating on NK cells (CD3-CD16^+ lymphocytes). The percentage of CD107a positive NK cells was quantified by comparison with a negative control (isotype control, unstained cells/FMO). Control cultures (NK cells cultured without target cells, or NK, target cell co-cultures in the absence of appropriate monoclonal antibody) were also evaluated; all experiments were performed in triplicate.

Raji cells = test: Rituximab ADCC chromium release assay; format: cell-based, human; settings: 1 μM
Text: Cell culture conditions were as follows. […] The HER18 cells were maintained in DEM supplemented with fetal bovine serum, penicillin-streptomycin and. Prior to assay, HER18 cells were harvested using trypsin-EDTA, washed with phosphate-buffered saline (PBS) containing 5% serum and viable cells were counted. For culture of primary target cells, peripheral blood from CLL patients was subject to density centrifugation to obtain peripheral blood mononuclear cells (PBMC). Cell preparations were washed and then subject to positive selection of CD5+CD19^+ CLL cells using magnetic beads (MACS, Miltenyi Biotech). Cell preparations were used fresh after selection. NK cells from CLL patients and healthy volunteers were enriched from peripheral blood collected in sodium citrate anti-coagulant tubes and then subject to density centrifugation. Removal of non NK cells was performed using negative selection by MACS separation. Freshly isolated NK cells were washed three times, enumerated, and then used immediately for ADCC assays.
ADCC assays were performed as follows. Briefly, target cells (Raji or primary CLL) were labeled by incubation at 37° C. with 100 μCi ^51Cr for 4 hours prior to co-culture with NK cells. Cells were washed, enumerated, and then added in triplicate to prepared 96-well plates containing treated NK cells at an effector:target (E:T) ratio of 25:1. […] The effect of NK cell natural cytotoxicity was assessed in wells containing no rituximab. Cultures were incubated at 37° C. for 4 hours, and then centrifuged. Supernatants were harvested and ^51Cr release was measured by liquid scintillation counting. All experiments were performed in triplicate.

[5] = Cardiovascular function study in telemeterized beagle dogs; format: in vivo; settings: single doses through 30 mg/kg
Text: Formula (II) was well tolerated in standard in vivo Good Laboratory Practices (GLP) studies of pharmacologic safety.

[6] = In vitro metabolism in hepatocytes with 14C-labeled Formula (II); format: in vitro ADME, mouse, rat, dog, rabbit, monkey, and human
Text: (§1) No unique human metabolite was identified. Preliminary evaluations of metabolism in the plasma, bile, and urine of rats, dogs, and monkeys indicated metabolic processes of oxidation, glutathione binding, and hydrolysis.

[7] = Glutathione binding and depletion in vitro; format: in vitro ADME
Text: as §1

CD4+ T cells = test: Th17 and Treg development from CD4+ T cells; format: cell-based
Protocol: Enriched CD4^+ T cells are plated on 24-well culture dishes that have been precoated 2 hr with 250 μL anti-TCRβ (0.5 μg/mL) plus anti-CD28 (5 μg/mL) at 37° C. in PBS. The cells are then supplemented with media containing BTK inhibitors along with the skewing cytokines as indicated in the following. The Th17 and Treg cultures are grown for 4 days before analysis. The cells are maintained for an additional 3 days with skewing cytokines (Th17; 20 ng/mL IL-6, 0.5 ng/mL TGF-β, 5 μg/mL IL-4, 5 μg/mL IFN-γ and Treg; 0.5 ng/mL TGF-β, 5 μg/mL IL-4, 5 μg/mL IFN-γ) and are supplemented with IL2 as a growth factor.

NK cells [8] = test: Whole blood NK cell degranulation/ADCC assay, MEC-1 cells opsonised with obinutuzumab; format: cell-based, human; settings: 1 h pretreatment, obinutuzumab 1 μg/mL, 4 h
Protocol: Degranulation in whole blood was performed as follows. […] Exponentially growing cells were used. […] A white blood cell (WBC) count of whole blood was performed. […] 170 μL aliquots of unmanipulated whole blood were incubated with 10 μL BTK inhibitors or X-VIVO 15 medium for one hour into a plate. […] The samples were placed in a 5% CO2 incubator for 4 hours at 37° C.
After 4 hours, the samples were mixed gently and 50 μL aliquots were removed from each well and placed in fluorescence-activated cell sorting (FACS) test tubes. A 20 μL aliquot of anti-CD56-APC antibody and anti-CD107a-PE antibody was added. The samples were incubated for 20 minutes at room temperature in the dark. An aliquot of 2 mL of FACS lysing solution (BD Biosceinces) was added. The samples were again incubated for 5 minutes, and then centrifuged at 2000 rpm for 5 minutes. Supernatant was discarded and the cell pellet was resuspended in 500 μL of PBS. The samples were analyzed on the flow cytometer for CD107a^+ NK cells (CD56+).

## CC#CC(=O)N1CCC[C@H]1c1nc(-c2ccc(C(=O)Nc3ccccn3)cc2)c2c(N)nccn12 [Formula (II), (S)-4-(8-amino-3-(1-(but-2-ynoyl)pyrrolidin-2-yl)imidazo[1,5-a]pyrazin-1-yl)-N-(pyridin-2-yl)benzamide]
[1]; FIG. 22 and FIG. 23
  GPVI platelet aggregation: does not
[1]; Homo sapiens, Platelet, FIG. 22
  IC50: 1.15 µM
[2]
  effect on thrombus formation: does not interfere with thrombus formation
[3]
  reduction in tumor size: show efficacy alone
NK cells [4]; 1 μM, HER18 target cells
  inhibition of trastuzumab-stimulated NK cell degranulation: no inhibitory effect
NK cells [4]; DHL-4 target cells
  reduction of rituximab-stimulated NK cell degranulation: < 2%
Raji cells; FIG. 31
  rituximab ADCC, NK cell activity: not inhibited
Raji cells; healthy donor NK cells
  antibody-dependent lysis of rituximab-coated Raji cells: not inhibited
[5]
  body temperature, cardiovascular, ECG (including QT interval) parameters: no meaningful changes
[6]
  metabolites in hepatocytes: two mono-oxidized metabolites and a glutathione conjugate
[7]
  glutathione binding and depletion: binds to glutathione but does not deplete glutathione
CD4+ T cells
  Th17 and Treg development: no adverse effects on Th17 and Treg development
NK cells [8]
  reduction of obinutuzumab-stimulated NK cell degranulation: minimal effect
